Data as given in patent US20050197350A1, “Novel quinoline, tetrahydroquinazoline, and pyrimidine derivatives and methods of treatment related to the use thereof” (TAISHO PHARMACEUTICAL CO., LTD., priority 2003, published 2005).
Like-named read-outs stand apart in the source and are kept apart here. Values belong to the molecule of their own block, whether it stands above or below them.

System: MCH receptors
Assay: MCH receptor activity class (method not given)
[1] = class by percent of control at 10^-7 M or IC50
[2] = activity class 1-3: percent of control at 10^-7 M or IC50
[3] = class by percent of control at 10^−7 M or IC50

Structure (SMILES): COc1cc(OC)c(CNC[C@H]2CC[C@@H](Nc3nccc(N(C)C)n3)CC2)c(OC)c1 [compound 1282]
- class [1]: 1 (Class 1: The value of percent of control at 10^−7 M was less than 40% or the value of IC50 was less than 50 nM.)

Structure (SMILES): COc1cc(CN[C@H]2CC[C@@H](Nc3nccc(N(C)C)n3)CC2)ccc1O [compound 1241]
- class [1]: 3 (Class 3 The value of percent of control at 10^−7 M was more than 60% or the value of IC50 was more than 200 nM.)

Structure (SMILES): CN(C)c1nc(N[C@H]2CC[C@@H](NC(=S)Nc3ccc(Cl)cc3Cl)CC2)nc2c1CCCC2 [compound 1739]
- class [1]: 3 (Class 3 The value of percent of control at 10^−7 M was more than 60% or the value of IC50 was more than 200 nM.)

Structure (SMILES): COc1cc(Br)cc(CN[C@H]2CC[C@@H](Nc3nc4c(c(N(C)C)n3)CCCC4)CC2)c1O [compound 1333]
- class [1]: 3 (Class 3 The value of percent of control at 10^−7 M was more than 60% or the value of IC50 was more than 200 nM.)

Structure (SMILES): COc1ccc2ccccc2c1CN[C@H]1CC[C@@H](Nc2nc3c(c(N(C)C)n2)CCCC3)CC1 [compound 1332]
- class [1]: 3 (Class 3 The value of percent of control at 10^−7 M was more than 60% or the value of IC50 was more than 200 nM.)

- class: 1
Structure (SMILES): Cc1cc(N[C@H]2CC[C@@H](NC(=O)c3ccc(Br)o3)CC2)nc2ccccc12 [Example 2557, 5-bromo-N-{cis-4-[(4-methylquinolin-2-yl)amino]cyclohexyl}-2-furamide]

Structure (SMILES): CN(C)c1nc(N[C@H]2CC[C@@H](NC(=O)Nc3c(Cl)c(Cl)cc(Cl)c3Cl)CC2)nc2c1CCCC2 [compound 1708]
- class [2]: 3 (Class 3 The value of percent of control at 10^−7 M was more than 60% or the value of IC50 was more than 200 nM.)

Structure (SMILES): COc1ccc(C2(C(=O)N[C@H]3CC[C@@H](Nc4ncc(C)c(N(C)C)n4)CC3)CC2)cc1 [compound 2875]
- class [3]: 1 (Class 1: The value of percent of control at 10^−7 M was less than 40% or the value of IC50 was less than 50 nM.)

- class: 1
Structure (SMILES): Cc1cccc(C(=O)N[C@H]2CC[C@@H](Nc3ncc(C)c(N(C)C)n3)CC2)c1 [Example 2562, N-(cis-4-{[4-(dimethylamino)-5-methylpyrimidin-2-yl]amino}cyclohexyl)-3-methylbenzamide]

Structure (SMILES): CN(C)c1ccnc(N[C@H]2CC[C@@H](CNC(=O)OCC(Cl)(Cl)Cl)CC2)n1 [compound 1658]
- class [2]: 3 (Class 3 The value of percent of control at 10^−7 M was more than 60% or the value of IC50 was more than 200 nM.)

Structure (SMILES): Cc1cc(C(=O)N[C@H]2CC[C@@H](Nc3nccc(N(C)C)n3)CC2)cc(C)c1[N+](=O)[O-] [compound 913, N-(cis-4-{[4-(dimethylamino)pyrimidin-2-yl]amino}cyclohexyl)-3,5-dimethyl-4-nitrobenzamide]
- class [1]: 2 (Class 2: The value of percent of control at 10^−7 M was from 40% to 60% or the value of IC′50 was from 50 nM to 200 nM.)

Structure (SMILES): Cc1cccc(NC(=S)N[C@H]2CC[C@@H](Nc3nc4c(c(N(C)C)n3)CCCC4)CC2)c1 [compound 1947]
- class (MCH receptor, class by percent of control at 10^-7 M or IC50): 3 (Class 3 The value of percent of control at 10^−7 M was more than 60% or the value of IC50 was more than 200 nM.)

Structure (SMILES): CN(C)c1cc(N[C@H]2CC[C@@H](NC(=O)Nc3ccc4c(c3)OCCO4)CC2)nc2ccccc12 [compound 2161]
- class [1]: 3 (Class 3 The value of percent of control at 10^−7 M was more than 60% or the value of IC50 was more than 200 nM.)

Structure (SMILES): CN(C)c1ccnc(N[C@H]2CC[C@@H](CNC(=O)Cc3cccc4ccccc34)CC2)n1 [compound 434]
- class (class 1-3 by percent of control at 10^-7 M or IC50): 1 (Class 1: The value of percent of control at 10^−7 M was less than 40% or the value of IC50 was less than 50 nM.)

Structure (SMILES): Cc1cc(N(C)C)nc(N[C@H]2CC[C@@H](NC(=O)c3cc(F)cc(C(F)(F)F)c3)CC2)n1 [compound 2962, N-(cis-4-{[4-(dimethylamino)-6-methylpyrimidin-2-yl]amino}cyclohexyl)-3-fluoro-5-(trifluoromethyl)benzamide]
- class [3]: 1 (Class 1: The value of percent of control at 10^−7 M was less than 40% or the value of IC50 was less than 50 nM.)
